{
  "source": "patent US9211310B2",
  "about": "“Use of a Chinese medicine composition in preparing medicaments for treating secondary prevention of myocardial infarction” (TASLY PHARMACEUTICAL GROUP CO., LTD, priority 2010, dated 2015)",
  "system": "patients after acute myocardial infarction",
  "experiment": "Life quality, Seattle Angina Questionnaire (SAQ), same clinical trial",
  "assay_type": "in vivo, human",
  "conditions": "PP",
  "from_the_text": "3508 patients who were in accordance with the diagnostic standards of AMI for 28 days to 2 years and differentiated as Qi deficiency and blood stagnation syndrome by TCM were studied. 0.5 g Chinese medicine composition prepared by the method of EXAMPLE 1 (Coded as QSYQ) was administrated half an hour after meal, 3 times per day.\nThere were 19 questions in the Seattle angina questionnaire (SAQ), including 5 parts: physical limitation (PL), anginal stability (AS), anginal frequency (AF), treatment satisfaction (TS) and disease perception (DP). After being given necessary explanation by doctors, the questions were answered independently by patients.\nThey included the overall survival time, angina pectoris score, TCM symptom score and life quality score, where angina pectoris score, TCM symptom score and life quality score were evaluated at randomization, in 1st, 3rd, 6th, 9th, 12th month after treatment and 18th month after follow-up.\nAll evaluation results of SAQ were described during the period of observation, and Wilcoxon rank sum test was used for inter-group comparison.\nThe evaluation results in the SAQ were depicted in different observations, and inter-group comparison was tested by Wilcoxon Rank-sum test.",
  "data": [
    {"smiles": "CC(=O)Oc1ccccc1C(=O)O", "note": "[Control group, aspirine]", "values": [
      {"measurement": "SAQ Question 1-7: Moserately limited, patients (%)", "setting": "3 months after treatment", "result": "(14.91%)"},
      {"measurement": "SAQ Question 1-7: Not limited, patients (%)", "setting": "3 months after treatment", "result": "(13.46%)"},
      {"measurement": "SAQ Question 1-7: Other reasons, patients (%)", "setting": "3 months after treatment", "result": "(3.11%)"},
      {"measurement": "SAQ Question 1-7: Severely limited, patients (%)", "setting": "3 months after treatment", "result": "(16.01%)"},
      {"measurement": "SAQ Question 1-7: Slightly limited, patients (%)", "setting": "3 months after treatment", "result": "(28.71%)"},
      {"measurement": "SAQ Question 1-8: Mildly limited, patients (%)", "setting": "3 months after treatment", "result": "(25.82%)"},
      {"measurement": "SAQ Question 1-8: Moderately limited, patients (%)", "setting": "3 months after treatment", "result": "(17.90%)"},
      {"measurement": "SAQ Question 1-8: Not limited, patients (%)", "setting": "3 months after treatment", "result": "(10.48%)"},
      {"measurement": "SAQ Question 1-8: Other reasons, patients (%)", "setting": "3 months after treatment", "result": "(2.91%)"},
      {"measurement": "SAQ Question 1-8: Severely limieted, patients (%)", "setting": "3 months after treatment", "result": "(21.30%)"},
      {"measurement": "SAQ Question 1-8: Slightly limited, patients (%)", "setting": "3 months after treatment", "result": "(21.58%)"},
      {"measurement": "8th question: Dissatisfied, patients (%)", "setting": "6 months after treatment", "result": "(0.07%)"},
      {"measurement": "8th question: Highly satisfied, patients (%)", "setting": "6 months after treatment", "result": "(20.69%)"},
      {"measurement": "8th question: Mostly satisfied, patients (%)", "setting": "6 months after treatment", "result": "(56.70%)"},
      {"measurement": "8th question: Partly satisfied, patients (%)", "setting": "6 months after treatment", "result": "(20.96%)"},
      {"measurement": "9th question: Few, patients (%)", "setting": "6 months after treatment", "result": "(34.99%)"},
      {"measurement": "9th question: Mild, patients (%)", "setting": "6 months after treatment", "result": "(34.44%)"},
      {"measurement": "9th question: Moderate, patients (%)", "setting": "6 months after treatment", "result": "(10.54%)"},
      {"measurement": "9th question: Severe, patients (%)", "setting": "6 months after treatment", "result": "(0.21%)"},
      {"measurement": "9th question: Uneffective, patients (%)", "setting": "6 months after treatment", "result": "(19.83%)"},
      {"measurement": "10th question: Dissatisfied, patients (%)", "setting": "6 months after treatment", "result": "(20.36%)"},
      {"measurement": "10th question: Highly satisfied, patients (%)", "setting": "6 months after treatment", "result": "(4.88%)"},
      {"measurement": "10th question: Mostly dissatisfied, patients (%)", "setting": "6 months after treatment", "result": "(21.32%)"},
      {"measurement": "10th question: Mostly satisfied, patients (%)", "setting": "6 months after treatment", "result": "(26.34%)"},
      {"measurement": "10th question: Partly satisfied, patients (%)", "setting": "6 months after treatment", "result": "(27.10%)"},
      {"measurement": "11th question: Continuously worried, patients (%)", "setting": "6 months after treatment", "result": "(3.44%)"},
      {"measurement": "11th question: No worried, patients (%)", "setting": "6 months after treatment", "result": "(4.81%)"},
      {"measurement": "11th question: Occasionally worried, patients (%)", "setting": "6 months after treatment", "result": "(42.68%)"},
      {"measurement": "11th question: Often worried, patients (%)", "setting": "6 months after treatment", "result": "(14.57%)"},
      {"measurement": "11th question: Seldom worried, patients (%)", "setting": "6 months after treatment", "result": "(34.50%)"},
      {"measurement": "SAQ 4th question, 1-2 times per week: % of patients", "setting": "6 months after treatment", "result": "(18.08%)"},
      {"measurement": "SAQ 4th question, 1-2 times per week: number of patients", "setting": "6 months after treatment", "result": 263},
      {"measurement": "SAQ 4th question, 1-3 times per day: % of patients", "setting": "6 months after treatment", "result": "(3.85%)"},
      {"measurement": "SAQ 4th question, 1-3 times per day: number of patients", "setting": "6 months after treatment", "result": 56},
      {"measurement": "SAQ 4th question, <1 time per week: % of patients", "setting": "6 months after treatment", "result": "(11.34%)"},
      {"measurement": "SAQ 4th question, <1 time per week: number of patients", "setting": "6 months after treatment", "result": 165},
      {"measurement": "SAQ 4th question, Not used: % of patients", "setting": "6 months after treatment", "result": "(60.14%)"},
      {"measurement": "SAQ 4th question, Not used: number of patients", "setting": "6 months after treatment", "result": 875},
      {"measurement": "SAQ 4th question, ≧3 times per week: % of patients", "setting": "6 months after treatment", "result": "(6.53%)"},
      {"measurement": "SAQ 4th question, ≧3 times per week: number of patients", "setting": "6 months after treatment", "result": 95},
      {"measurement": "SAQ 4th question, ≧4 times per day: % of patients", "setting": "6 months after treatment", "result": "(0.07%)"},
      {"measurement": "SAQ 4th question, ≧4 times per day: number of patients", "setting": "6 months after treatment", "result": 1},
      {"measurement": "SAQ 5th question, 1-2 times per week: % of patients", "setting": "6 months after treatment", "result": "(27.01%)"},
      {"measurement": "SAQ 5th question, 1-2 times per week: number of patients", "setting": "6 months after treatment", "result": 393},
      {"measurement": "SAQ 5th question, 1-3 times per day: % of patients", "setting": "6 months after treatment", "result": "(11.00%)"},
      {"measurement": "SAQ 5th question, 1-3 times per day: number of patients", "setting": "6 months after treatment", "result": 160},
      {"measurement": "SAQ 5th question, <1 time per week: % of patients", "setting": "6 months after treatment", "result": "(28.18%)"},
      {"measurement": "SAQ 5th question, <1 time per week: number of patients", "setting": "6 months after treatment", "result": 410},
      {"measurement": "SAQ 5th question, No onset: % of patients", "setting": "6 months after treatment", "result": "(4.47%)"},
      {"measurement": "SAQ 5th question, No onset: number of patients", "setting": "6 months after treatment", "result": 65},
      {"measurement": "SAQ 5th question, ≧3 times per week: % of patients", "setting": "6 months after treatment", "result": "(28.93%)"},
      {"measurement": "SAQ 5th question, ≧3 times per week: number of patients", "setting": "6 months after treatment", "result": 421},
      {"measurement": "SAQ 5th question, ≧4 times per day: % of patients", "setting": "6 months after treatment", "result": "(0.41%)"},
      {"measurement": "SAQ 5th question, ≧4 times per day: number of patients", "setting": "6 months after treatment", "result": 6},
      {"measurement": "SAQ 6th question, Dissatisfied: % of patients", "setting": "6 months after treatment", "result": "(0.00%)"},
      {"measurement": "SAQ 6th question, Dissatisfied: number of patients", "setting": "6 months after treatment", "result": 0},
      {"measurement": "SAQ 6th question, Highly satisfied: % of patients", "setting": "6 months after treatment", "result": "(22.27%)"},
      {"measurement": "SAQ 6th question, Highly satisfied: number of patients", "setting": "6 months after treatment", "result": 324},
      {"measurement": "SAQ 6th question, Mostly dissatisfied: % of patients", "setting": "6 months after treatment", "result": "(1.65%)"},
      {"measurement": "SAQ 6th question, Mostly dissatisfied: number of patients", "setting": "6 months after treatment", "result": 24},
      {"measurement": "SAQ 6th question, Mostly satisfied: % of patients", "setting": "6 months after treatment", "result": "(55.95%)"},
      {"measurement": "SAQ 6th question, Mostly satisfied: number of patients", "setting": "6 months after treatment", "result": 814},
      {"measurement": "SAQ 6th question, Partly satisfied: % of patients", "setting": "6 months after treatment", "result": "(20.14%)"},
      {"measurement": "SAQ 6th question, Partly satisfied: number of patients", "setting": "6 months after treatment", "result": 293},
      {"measurement": "SAQ 7th question, Dissatisfied: % of patients", "setting": "6 months after treatment", "result": "(0.07%)"},
      {"measurement": "SAQ 7th question, Dissatisfied: number of patients", "setting": "6 months after treatment", "result": 1},
      {"measurement": "SAQ 7th question, Highly satisfied: % of patients", "setting": "6 months after treatment", "result": "(25.67%)"},
      {"measurement": "SAQ 7th question, Highly satisfied: number of patients", "setting": "6 months after treatment", "result": 373},
      {"measurement": "SAQ 7th question, Mostly dissatisfied: % of patients", "setting": "6 months after treatment", "result": "(1.10%)"},
      {"measurement": "SAQ 7th question, Mostly dissatisfied: number of patients", "setting": "6 months after treatment", "result": 16},
      {"measurement": "SAQ 7th question, Mostly satisfied: % of patients", "setting": "6 months after treatment", "result": "(58.22%)"},
      {"measurement": "SAQ 7th question, Mostly satisfied: number of patients", "setting": "6 months after treatment", "result": 846},
      {"measurement": "SAQ 7th question, Partly satisfied: % of patients", "setting": "6 months after treatment", "result": "(14.93%)"},
      {"measurement": "SAQ 7th question, Partly satisfied: number of patients", "setting": "6 months after treatment", "result": 217},
      {"measurement": "SAQ Question 1-1 Mildly limited, number of patients", "setting": "6 months after treatment", "result": 22},
      {"measurement": "SAQ Question 1-1 Mildly limited, percent of patients", "setting": "6 months after treatment", "result": "(1.52%)"},
      {"measurement": "SAQ Question 1-1 Moderately limited, number of patients", "setting": "6 months after treatment", "result": 4}
    ]}
  ]
}
